This is an account of results in patent US6900219B2, “ABCA-1 elevating compounds” (CV Therapeutics, Inc., priority 2002, dated 2005).

This test has as its system ABCA-1 gene. Kind of test: compounds tested and found to elevate cellular expression of the ABCA-1 gene (Examples 1-6; test not named). The class given is cell-based. The method, then:
Activity testing is conducted as described in those patents and patent applications referenced above, and in the Examples below, and by methods apparent to one skilled in the art.
In the case of `CCCCC(=O)Nc1nc2ccccc2s1` [N-benzothiazol-2-ylpentanamide], the “cellular expression of the ABCA-1 gene” value is on record as “elevate cellular expression of the ABCA-1 gene”. `Cc1ccc(-c2csc(-n3ncc(C(=O)NC4CC5CCC4C5)c3C)n2)cc1` (stereo not shown) [N-bicyclo[2.2.1]hept-2-yl {5-methyl-1-[4-(4-methylphenyl)(1,3-thiazol-2-yl)]pyrazol-4-yl}carboxamide]: the “cellular expression of the ABCA-1 gene” value was “elevate cellular expression of the ABCA-1 gene”. The same measure for `CCCCN(Cc1ccc(OCc2ccccc2)cc1)C(=O)Nc1ccc(SC)cc1` [N-butyl[(4-thiomethylphenyl)amino]-N-{[4-(phenylmethoxy)phenyl]methyl}-carboxamide]: “elevate cellular expression of the ABCA-1 gene”; for `Cc1c(C(=O)NC2CC2)cnn1-c1nc(-c2ccccc2)cs1` [N-cyclopropyl[5-methyl-1-(4-phenyl(1,3-thiazol-2-yl))pyrazol-4-yl]carboxamide]: “elevate cellular expression of the ABCA-1 gene”; for `O=C(Nc1ccccc1)Nc1ccc2c(c1)CCC2` [N-indan-5-yl(phenylamino)carboxamide]: “elevate cellular expression of the ABCA-1 gene”. Turning to `O=C(Nc1ccc2c(c1)CCC2)c1cccs1` [N-indan-5-yl-2-thienylcarboxamide], the “cellular expression of the ABCA-1 gene” value is listed as “elevate cellular expression of the ABCA-1 gene”. `CNC(=O)C(Sc1nnc(NC(=O)c2ccc(C)cc2)s1)C(C)=O` (stereo not shown) [N-methyl-2-{5-[(4-methylphenyl)carbonylamino](1,3,4-thiadiazol-2-ylthio)}-3-oxobutanamide]: the “cellular expression of the ABCA-1 gene” value is listed as “elevate cellular expression of the ABCA-1 gene”. `CCC(c1nc2ccccc2c(=O)n1-c1ccc(C)c(C)c1)N(CCOC)C(=O)Nc1ccc(Cl)cc1` (stereo not shown) [N-{[3-(3,4-dimethylphenyl)-4-oxo(3-hydroquinazolin-2-yl)]propyl}[(4-chlorophenyl)amino]-N-(2-methoxyethyl)carboxamide]: the “cellular expression of the ABCA-1 gene” value was “elevate cellular expression of the ABCA-1 gene”. For the compound `CCC(c1nc2ccccc2c(=O)n1-c1ccc(C)c(C)c1)N(Cc1ccccc1)C(=O)Nc1ccc(OC)cc1` (stereo not shown) [N-{[3-(3,4-dimethylphenyl)-4-oxo(3-hydroquinazolin-2-yl)]propyl}[(4-methoxyphenyl)amino]-N-benzylcarboxamide], the “cellular expression of the ABCA-1 gene” value is given as “elevate cellular expression of the ABCA-1 gene”. For `CCNC(=O)N(Cc1ccco1)C(C)c1nc2ccccc2c(=O)n1-c1ccc(Br)cc1` (stereo not shown) [N-{[3-(4-bromophenyl)-4-oxo(3-hydroquinazolin-2-yl)]ethyl}(ethylamino)-N-(2-furylmethyl)carboxamide], the “cellular expression of the ABCA-1 gene” value is listed as “elevate cellular expression of the ABCA-1 gene”.

As for `CCCCN(C(=O)Nc1ccc(OC)cc1)C(C)c1nc2ccccc2c(=O)n1-c1ccc(Br)cc1` (stereo not shown) [N-{[3-(4-bromophenyl)-4-oxo(3-hydroquinazolin-2-yl)]ethyl}-N-butyl[(4-methoxyphenyl)amino]carboxamide], the “cellular expression of the ABCA-1 gene” value is listed as “elevate cellular expression of the ABCA-1 gene”. Consider `CC(C)c1ccc(NC(=O)N(Cc2ccco2)C(C)c2nc3ccccc3c(=O)n2-c2ccc(Cl)cc2)cc1` (stereo not shown) [N-{[3-(4-chlorophenyl)-4-oxo(3-hydroquinazolin-2-yl)]ethyl}-N-(2-furylmethyl){[4-(methylethyl)phenyl]amino}carboxamide], for which the “cellular expression of the ABCA-1 gene” value was “elevate cellular expression of the ABCA-1 gene”. Take `CCCN(C(=O)Nc1cccc(OC)c1)C(C)c1nc2cc(Cl)ccc2c(=O)n1-c1ccc(C)cc1` (stereo not shown) [N-{[7-chloro-3-(4-methylphenyl)-4-oxo(3-hydroquinazolin-2-yl)]ethyl}[(3-methoxyphenyl)amino]-N-propylcarboxamide]: the “cellular expression of the ABCA-1 gene” value was “elevate cellular expression of the ABCA-1 gene”.

As for `Cc1c(C(=O)NC(=O)Nc2ccccc2Cl)cnn1-c1ccccc1` [N-{[(2-chlorophenyl)amino]carbonyl}(5-methyl-1-phenylpyrazol-4-yl)carboxamide], the “cellular expression of the ABCA-1 gene” value is “elevate cellular expression of the ABCA-1 gene”. Consider `CCN(CCCN(CC)c1nc2cc(C(=O)Nc3ccc(OC)cc3)ccc2o1)C(=O)c1cccc(F)c1C` [[2-(ethyl{3-[N-ethyl(3-fluoro-2-methylphenyl)carbonylamino]propyl}amino)benzoxazol-5-yl]-N-(4-methoxyphenyl)carboxamide], for which the “cellular expression of the ABCA-1 gene” value is “elevate cellular expression of the ABCA-1 gene”.

Turning to `O=C(Nc1ncc(-c2ccccc2)s1)c1ccc(C(F)(F)F)cc1F` [[2-fluoro-4-(trifluoromethyl)phenyl]-N-(5-phenyl(1,3-thiazol-2-yl))carboxamide], the “cellular expression of the ABCA-1 gene” value is “elevate cellular expression of the ABCA-1 gene”. The same measure for `Cc1onc(-c2ccccc2Cl)c1C(=O)Nc1ncc(-c2ccccc2)s1` [[3-(2-chlorophenyl)-5-methylisoxazol-4-yl]-N-(5-phenyl(1,3-thiazol-2-yl))carboxamide]: “elevate cellular expression of the ABCA-1 gene”; for `O=C(Nc1ncc(-c2ccccc2)s1)c1ccc(C(F)(F)F)c(F)c1` [[3-fluoro-4-(trifluoromethyl)phenyl]-N-(5-phenyl(1,3-thiazol-2-yl))carboxamide]: “elevate cellular expression of the ABCA-1 gene”; for `CCc1c(C(=O)N2CCN(C(=O)c3cccc(Br)c3)C(C)C2)cnn1-c1nc(-c2ccc(Cl)cc2)cs1` (stereo not shown) [[4-(3-bromo-benzoyl)-3-methyl-piperazin-1-yl]-{1-[4-(4-chloro-phenyl)-thiazol-2-yl]-5-ethyl-1H-pyrazol-4-yl}-methanone]: “elevate cellular expression of the ABCA-1 gene”. On to `CCc1c(C(=O)N2CCN(C(=O)c3ccc(-c4ccccc4)cc3)C(C)C2)cnn1-c1nc(-c2ccc(OC)cc2)cs1` (stereo not shown) [[4-(biphenyl-4-carbonyl)-3-methyl-piperazin-1-yl]-{5-ethyl-1-[4-(4-methoxy-phenyl)-thiazol-2-yl]-1H-pyrazol-4-yl}-methanone], for which the “cellular expression of the ABCA-1 gene” value was “elevate cellular expression of the ABCA-1 gene”. In the case of `CN(C)c1ccc(C(=O)NC2=NCCS2)cc1` [[4-(dimethylamino)phenyl]-N-(1,3-thiazolin-2-yl)carboxamide], the “cellular expression of the ABCA-1 gene” value is given as “elevate cellular expression of the ABCA-1 gene”. With `CN(C)c1ccc(C(=O)NC2=NC(=O)CS2)cc1` [[4-(dimethylamino)phenyl]-N-(4-oxo(1,3-thiazolin-2-yl))carboxamide], the “cellular expression of the ABCA-1 gene” value is reported as “elevate cellular expression of the ABCA-1 gene”.

For `CC(C)c1ccc(C(=O)NC2=NCCS2)cc1` [[4-(methylethyl)phenyl]-N-(1,3-thiazolin-2-yl)carboxamide], the “cellular expression of the ABCA-1 gene” value was “elevate cellular expression of the ABCA-1 gene”. Regarding `CC(C)(C)c1ccc(C(=O)NC2=NCCS2)cc1` [[4-(tert-butyl)phenyl]-N-(1,3-thiazolin-2-yl)carboxamide], the “cellular expression of the ABCA-1 gene” value is “elevate cellular expression of the ABCA-1 gene”. With `CC(C)(C)c1ccc(C(=O)Nc2nc(-c3ccc4ccccc4c3)cs2)cc1` [[4-(tert-butyl)phenyl]-N-(4-(2-naphthyl)(1,3-thiazol-2-yl))carboxamide], the “cellular expression of the ABCA-1 gene” value is reported as “elevate cellular expression of the ABCA-1 gene”. The same measure for `CC(C)(C)c1ccc(C(=O)NC2=NC(=O)CS2)cc1` [[4-(tert-butyl)phenyl]-N-(4-oxo(1,3-thiazolin-2-yl))carboxamide]: “elevate cellular expression of the ABCA-1 gene”. Consider `CC(C)(C)c1ccc(C(=O)Nc2ncc(-c3ccccc3)s2)cc1` [[4-(tert-butyl)phenyl]-N-(5-phenyl(1,3-thiazol-2-yl))carboxamide], for which the “cellular expression of the ABCA-1 gene” value is recorded as “elevate cellular expression of the ABCA-1 gene”. The same measure for `CC(C)(C)c1ccc(C(=O)Nc2nc(-c3ccc(Cl)cc3)cs2)cc1` [[4-(tert-butyl)phenyl]-N-[4-(4-chlorophenyl)(1,3-thiazol-2-yl)]carboxamide]: “elevate cellular expression of the ABCA-1 gene”; for `CC(C)(C)c1ccc(C(=O)N(CCc2ccccn2)Cc2ccccc2[N+](=O)[O-])cc1` [[4-(tert-butyl)phenyl]-N-[(2-nitrophenyl)methyl]-N-(2-(2-pyridyl)ethyl)carboxamide]: “elevate cellular expression of the ABCA-1 gene”. As for `CC(c1nc2ccccc2c(=O)n1-c1ccc2ccccc2c1)N(CCN(C)C)C(=O)Nc1ccc(F)cc1F` (stereo not shown) [[(2,4-difluorophenyl)amino]-N-[2-(dimethylamino)ethyl]-N-[(3-(2-naphthyl)-4-oxo(3-hydroquinazolin-2-yl))ethyl]carboxamide], the “cellular expression of the ABCA-1 gene” value is on record as “elevate cellular expression of the ABCA-1 gene”.

Turning to `CCC(c1nc2ccccc2c(=O)n1-c1ccc(Cl)cc1)N(CCOC)C(=O)Nc1ccc(F)cc1F` (stereo not shown) [[(2,4-difluorophenyl)amino]-N-{[3-(4-chlorophenyl)-4-oxo(3-hydroquinazolin-2-yl)]propyl}-N-(2-methoxyethyl)carboxamide], the “cellular expression of the ABCA-1 gene” value is “elevate cellular expression of the ABCA-1 gene”. `Cc1cccc(C)c1NC(=O)N(Cc1ccccc1)C(C)c1nc2ccccc2c(=O)n1-c1ccc2ccccc2c1` (stereo not shown) [[(2,6-dimethylphenyl)amino]-N-[(3-(2-naphthyl)-4-oxo(3-hydroquinazolin-2-yl))ethyl]-N-benzylcarboxamide]: the “cellular expression of the ABCA-1 gene” value is “elevate cellular expression of the ABCA-1 gene”. As to `Cc1ccccc1NC(=O)N(CC(C)C)C(C)c1nc2ccccc2c(=O)n1-c1ccc2ccccc2c1` (stereo not shown) [[(2-methylphenyl)amino]-N-(2-methylpropyl)-N-[(3-(2-naphthyl)-4-oxo(3-hydroquinazolin-2-yl))ethyl]carboxamide], the “cellular expression of the ABCA-1 gene” value is listed as “elevate cellular expression of the ABCA-1 gene”. With `CC(C)CN(C(=O)Nc1cccc(Br)c1)C(C)c1nc2ccccc2c(=O)n1-c1ccc2ccccc2c1` (stereo not shown) [[(3-bromophenyl)amino]-N-(2-methylpropyl)-N-[(3-(2-naphthyl)-4-oxo(3-hydroquinazolin-2-yl))ethyl]carboxamide], the “cellular expression of the ABCA-1 gene” value was “elevate cellular expression of the ABCA-1 gene”.
